In brackets after ≈: the same amount, converted by molar mass. Like-named read-outs stand apart in the source and are kept apart here.
Key:
Type in all cases: cell-based
[1] = tested on: Klebsiella (G-) Pneumoniae ATCC; assay: In vitro antibacterial activity, standard microdilution MIC assay
Experimental: The in vitro antibacterial activity of several tetraalkyl ethenylidenebisphosphonates, fosfomycin and Penicillin G were tested against various gram-positive and gram-negative bacteria using the standard microdilution Minimum Inhibitory Concentration (MIC) assay as disclosed in Laboratory Procedures in Clinical Microbiology (John A. Washington, editor), 281-311 (1985), incorporated herein by reference.

[2] = tested on: S. Aureus (G+) ATCC 27660; assay: as above; conditions: S. Aureus (G+) ATCC 27660, penicillin resistant
[3] = tested on: S. Aureus (G+) ATCC 25923; assay: as above
[4] = tested on: P. Aeruginosa (G-) ATCC 27853; assay: as above; conditions: P. Aeruginosa (G-) ATCC 27853, penicillin resistant
[5] = tested on: S. Aureus (G+) ATCC 12715; assay: as above; conditions: S. Aureus (G+) ATCC 12715, penicillin resistant
[6] = tested on: Clostridium (G+) perfringens ATCC 3624; assay: microbe, parasite or virus in culture
[7] = tested on: Streptococcus (G+) mutans, clinical isolate (third listed); assay: In vitro antibacterial activity, standard microdilution MIC assay
[8] = tested on: gram-positive microorganisms; assay: In vitro antibacterial activity (MIC), comparison with fosfomycin
[9] = tested on: Streptococcus (G+) mutans, clinical isolate (first listed); assay: In vitro antibacterial activity, standard microdilution MIC assay
[10] = tested on: Streptococcus (G+) mutans, clinical isolate (second listed); assay: as above
[11] = Staphylococcus aureus, ATCC27660, read-out: MIC
[12] = Staphylococcus aureus, ATCC25923, read-out: MIC
[13] = Pseudomonas aeruginosa, ATCC27853, read-out: MIC
[14] = Staphylococcus aureus, ATCC12715, read-out: MIC

Compound	MIC [1] [mg/L]	MIC [2]	MIC [3] [mg/L]	MIC [4]	MIC [5]	MIC [6] [mg/L]	MIC [7] [mg/L]	MIC ([6]; Clostridium, ATCC3624) [mg/L]	antibacterial efficacy against gram-positive microorganisms compared with fosfomycin [8]	MIC [2, 11] [µg/mL]	MIC [3, 12] [mg/L]	MIC [9] [mg/L]	MIC [4, 13] [mg/L]	MIC [5, 14] [µg/mL]	MIC [10] [mg/L]
C=C(P(=O)(OC)OC)P(=O)(OC)OC [A, Tetramethyl ethenylidenebisphosphonate]	405 (≈ 1660 µM)	1,200 μg/ml	430 (≈ 1760 µM)	6,300 μg/ml	1,200 μg/ml	–	–	–	–	–	–	–	–	–	–
C=C(P(=O)(OCC)OCC)P(=O)(OCC)OCC [B, Tetraethyl ethenylidenebisphosphonate]	–	160 µg/mL (≈ 533 µM)	110 (≈ 366 µM)	25,000 μg/ml	180 µg/mL (≈ 600 µM)	52 (≈ 173 µM)	–	–	–	–	–	–	–	–	–
C=C(P(=O)(OCCCC)OCCCC)P(=O)(OCCCC)OCCCC [C, Tetrabutyl ethenylidenebisphosphonate]	–	–	–	–	–	–	11 (≈ 26.7 µM)	2.1 (≈ 5.09 µM)	superior to fosfomycin	6.5 (≈ 15.8 µM)	4.5 (≈ 10.9 µM)	1.2 (≈ 2.91 µM)	25000 (≈ 60600 µM)	6.5 (≈ 15.8 µM)	11 (≈ 26.7 µM)
C[C@@H]1O[C@@H]1P(=O)(O)O [D, Fosfomycin, reference compound]	–	–	–	–	–	–	–	–	–	180 (≈ 1300 µM)	56 (≈ 406 µM)	–	31 (≈ 225 µM)	72 (≈ 522 µM)	–
CC1(C)S[C@@H]2[C@H](NC(=O)Cc3ccccc3)C(=O)N2[C@H]1C(=O)O [E, Penicillin G, reference compound]	–	–	–	–	–	–	–	–	–	25000 (≈ 74800 µM)	25 (≈ 74.8 µM)	–	24000 (≈ 71800 µM)	19000 (≈ 56800 µM)	–
